Measurements as given in patent publication US5219866A, “Octadecyl-[2-(N-methylpiperidino)-ethyl]-phosphate and a process for its preparation” (Asta Medica AG, priority 1991, dated 1993).
Values after ≈ are worked out from the molar mass of the structure shown.

Tests used:
[1] = test system: Human KB tumour cell line; assay: EC90, growth inhibition of human KB tumour cell line in vitro; type: cell-based; conditions: concentration which inhibits growth of cancer cells in vitro by 90%, read-out: ECqo in μg/ml Human KB tumour cell line in vitro
Method: Human KB tumour cell line in
The EC90 is determined in vitro in the same cell line. The EC90 is the concentration of substance having an antitumor effect in μg/ml which inhibits the growth of cancer cells in vitro by 90% in comparison to a control experiment without addition of the antitumor-acting substance.

[2] = test system: human KB tumor cell line which is transplanted in nude mice; assay: Growth inhibition index WHI in vivo, human KB tumour cell line transplanted into nude mice; design: species or system human (KB tumour); nude mice (host); conditions: for Growth inhibition index WHI in % in vivo/humane KB tumour cell line transplanted into nude: 14th day after treatment related to the value on the day of application, WHI >100% = tumors became smaller
Method: Growth inhibition index WHI in % in vivo/humane
Substance KB tumour cell line transplanted into nude
The growth inhibition index WHI is determined in the human KB tumor cell line which is transplanted in nude mice. The growth inhibition index is defined as follows: [formula] of the treated group or in the control group on the 14th day after treatment related to the value on the day of application. […] In other words, the higher the WHI, the stronger the antitumor efficacy of a test substance.
(§1) The compounds of the invention display a good antineoplastic effect in the KB tumor (human carcinoma of the buccal cavity, transplanted subcutaneously to nude mice) and in autochthonous, chemically-induced DMBA-breast gland cancer in the rat.

[3] = test system: DMBA-breast gland cancer; assay: autochthonous, chemically-induced DMBA-breast gland cancer in the rat; type: in vivo; conditions: oral, 21.5 mg/kg body weight daily, 14-day treatment
Description: as §1

[4] = test system: blood platelet aggregation; assay: inhibition of blood platelet aggregation; type: cell-based
[5] = test system: lipoxygenase; assay: lipoxygenase inhibition; type: biochemical
[6] = test system: phospholipase-A2; assay: phospholipase-A2 inhibition; type: biochemical

| IC90 [1] | Compound | Growth inhibition index WHI in % in vivo/humane KB tumour cell line transplanted into nude [2] | regression of DMBA tumors weighing 5 g [3] | regression of the KB tumors ([2]; 2×316 mg/kg body weight, given at intervals of one week) | inhibition of blood platelet aggregation [4] | lipoxygenase-inhibiting effect [5] | phospholipase-A2-inhibiting effect [6] |
| --- | --- | --- | --- | --- | --- | --- | --- |
| 1 µg/mL (≈ 2.04 µM) | CCCCCCCCCCCCCCCCCCOP(=O)([O-])OCC[N+]1(C)CCCCCC1 [D20918] | 0% | – | – | – | – | – |
| 0.31 µg/mL (≈ 0.712 µM) | CCCCCCCCCCCCCCCCCCOP(=O)([O-])OCC[N+](C)(C)C [D 19391] | 11% | – | – | – | – | – |
| > 1 µg/mL | CCCCCCCCCCCCCCCCCCOP(=O)([O-])OCC[n+]1ccccc1 [D 19862] | 0% | – | – | – | – | – |
| > 10 µg/mL | CCCCCCCCCCCCCCCCCCOP(=O)([O-])OCC[N+]1(C)CCOCC1 [D 20680] | 0% | – | – | – | – | – |
| 1 µg/mL (≈ 2.04 µM) | CCCCCCCCCCCCCCCCCCOP(=O)([O-])OCC[N+]1(CC)CCCCC1 [D 20931] | 13% | – | – | – | – | – |

| Compound | IC90 [1] | Growth inhibition index WHI in % in vivo/humane KB tumour cell line transplanted into nude [2] | regression of DMBA tumors weighing 5 g [3] | regression of the KB tumors ([2]; 2×316 mg/kg body weight, given at intervals of one week) | inhibition of blood platelet aggregation [4] | lipoxygenase-inhibiting effect [5] | phospholipase-A2-inhibiting effect [6] |
| --- | --- | --- | --- | --- | --- | --- | --- |
| CCCCCCCCCCCCCCCCCCOP(=O)([O-])OCC[N+]1(C)CCCCC1 [D 20133, Octadecyl-[2-(N-methylpiperidino)-ethyl]-phosphate] | 0.3 µg/mL (≈ 0.631 µM) | 121% | regressed to the borderline of palpability | achieved a regression of the KB tumors | causes inhibition of blood platelet aggregation | lipoxygenase-inhibiting effect | phospholipase-A2 -inhibiting |
